Laboratory results published in patent publication US10857128B2, “Methods and compositions for treating inflammatory diseases” (Helmholtz Zentrum München Deutsches Forschungszentrum für …, priority 2017, dated 2020).

Tested on: allergic airway inflammation
Assay: Ovalbumin-induced allergic airway inflammation (AAI) in mice with oral D-tryptophan
Type: in vivo, Balb/c mice
Method: Isolation of intestinal lamina propria cells. Total colons were excised from mice, removed from mesenteries, opened longitudinally and cut into 2 cm long pieces that were incubated for 30 min in 30 mM EDTA in PBS on ice and then shaken vigorously with PBS to remove epithelial cells. After further cutting into small pieces with sharp scissors these were digested at 37° C. in RMPI supplemented with 1 mg/mL collagenase D (Roche Diagnostics, Mannheim, Germany) and 10 mg/ml DNAse I (Sigma-Aldrich, St. Louis, USA). Cells were separated by a 40/80% (w/v) Percoll (GE Healthcare, Chalfont St. Giles, UK) density centrifugation step and washed prior to staining for flow cytometry analysis.
Costimulatory molecules on human DCs. The following primary monoclonal antibodies were used: CD83 fluorescein isothiocyanate (FITC); CD1a phycoerythrin (PE); CD86-FITC; CD80-PE; CD14 allophycocyanine (APC); CD40-APC; CD3-peridinin chlorophyll protein (PerCP); HLA-DR-PerCP; mouse immunoglobulins G1 (IgG1) mouse immunoglobulins G1 (IgG1) κ were used as isotype controls using the corresponding fluorochromes (all purchased from BD Biosciences, Heidelberg, Germany). To account for donor dependent variability of DC surface markers, all data were normalized to the expression induced by LPS which was set to 100% after subtraction of background values (FACS Canto, FACS DIVA software, Version 5.0.3, BD Biosciences, Heidelberg, Germany). Murine DC subsets and CD4^+ T cells. Single cell suspensions of splenocytes were obtained by filtering spleens through a 70 μm strainer. Samples were stained with CD3-PB (1:200, Biolegend, San Diego, USA), CD4-APC-H7 (BD, 1:400), CD11c-APC-Cy7 (1:100), Mhc-II-Percp-Cy5 (1:100), CD11b-FITC (1:100), CD80-AF647, CD40-APC (1:100). For intracellular cytokines, total spleen cells were stimulated with anti-CD3 (4 μg/mL, BD Bioscience, Heidelberg, Germany) and anti-CD28 (30 ng/mL, BD Bioscience, Heidelberg, Germany) for 16 h. 1×10^6 of total lung cells were stimulated for 16 h with MACSiBead particles coated with anti-CD3 and anti-CD28 using the T cell activation/expansion kit (Miltenyi Biotec, Bergisch Gladbach, Germany) in TexMACS medium (Miltenyi Biotec) according to the manufactures recommendations. Prior to staining, cells were treated with monensin (0.7 μL/mL, BD Golgi Stop, BD Bioscience, Heidelberg, Germany) for 6 h at 37° C. and intracellularly stained for II-4-PE (1:100, eBioscience, Vienna, Austria according to the manufacturer's protocols. Intracellular staining for Foxp3 was performed by using the Foxp3/Transcription Factor Staining buffer set (eBiosciences, Vienna, Austria) according to the manufacturer's recommendations.
Assessment of cytokines by cytometric bead array. Levels of II4, II5 and II13 were analysed in BALF and cell culture supernatants using an enhanced cytometric bead array (eCBA, Fex Set Kits, BD Biosciences, Franklin Lakes, N.J., USA) according to the manufacturer's guidelines.
Murine regulatory T cells. Cells were preincubated with Fc-Block (BD Bioscience, Heidelberg, Germany) for 5 min and stained for 20 min with the following antibodies: FITC-conjugated anti-CD3, Alexa-Fluor700-conjugated anti-CD4 and APC-eFluor780-conjugated CD45.2. For intracellular staining, cells were fixed and permeabilized with a commercially available fixation/permeabilization buffer (eBioscience, Vienna, Austria). LIVE/DEAD fixable Aqua dead stain kit (Invitrogen, Carlsbad, USA) was used prior to fixation. Intracellular staining was performed with PerCP-Cy5.5-conjugated anti-Foxp3 and Helios. Gates were set on live CD45^+CD3^+CD4^+ T cells. All antibodies were from eBioscience (Vienna, Austria). Cells were analyzed with a flow cytometer (Fortessa and LSRII, BD Bioscience, Heidelberg, Germany) and analyzed with Flowjo software (Flowjo LLC, Ashland, USA).
Induction of allergic airway inflammation. […]

[1] = AAI mice, 50 mM in drinking water

N[C@H](Cc1c[nH]c2ccccc12)C(=O)O [D-tryptophan]
Helios+ Treg (lung) [1]: significantly increased | II-4 producing T cells (lung) [1]: reduced | Ifn-g-producing Th1 cells (lung) [1]: not | airway hyperreactivity to methacholine [1]: improved | eosinophils in BALF [1]: reduction | total Foxp3+ cells (lung) [1]: remained unchanged | total BALF cells (AAI mice, 50 mM in drinking water from 3 days before sensitization): lowered | II-4 levels in BALF (AAI mice, 50 mM in drinking water, (trend)): reduced | frequency of Foxp3+ T cells in the colon (supplemented AAI mice compared to non-supplemented AAI mice): locally increased
